Inconclusive results and toxic doses are left out. The calls were made as follows: active = survival T/C of 150% or more; inactive = T/C below 125% in these data.
Test system: BDF1 mice, P388 leukemia ip, median survival T/C
Assay: NCI In Vivo Anticancer Drug Screen. Data for tumor model P388 Leukemia (intraperitoneal) in B6D2F1 (BDF1) mice
Conditions: endpoint: median survival time, higher = longer survival
Procedure, shortened: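 T/C = treated-group survival ÷ vehicle-control survival; tumour transplanted into mice before dosing.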

[1] = dose: 100.0 mg/kg/injection, schedule: Q04DX003 (ip), vehicle: saline with Tween-80
[2] = dose: 200.0 mg/kg/injection, schedule: Q04DX003 (ip), vehicle: saline with Tween-80
[3] = dose: 400.0 mg/kg/injection, schedule: Q04DX003 (ip), vehicle: saline with Tween-80
[4] = dose: 100.0 mg/kg/injection, schedule: Q04DX003 (ip), vehicle: saline sonified
[5] = dose: 200.0 mg/kg/injection, schedule: Q04DX003 (ip), vehicle: saline sonified
[6] = dose: 100.0 mg/kg/injection, schedule: Q01DX009 (ip), vehicle: saline with Tween-80
[7] = dose: 200.0 mg/kg/injection, schedule: Q01DX009 (ip), vehicle: saline with Tween-80

Measured: T/C

COC(=O)C(N)CSCSC (stereo unspecified)
inactive: dose: 100.0 mg/kg/injection, schedule: Q04DX003 (ip), vehicle: saline 90 % of control | dose: 200.0 mg/kg/injection, schedule: Q04DX003 (ip), vehicle: saline 100 % of control | dose: 400.0 mg/kg/injection, schedule: Q04DX003 (ip), vehicle: saline 90 % of control

CCOC(=O)c1cc(N)c(N2CCCC2)cc1Cl
inactive: [1] 100 % of control | dose: 133.0 mg/kg/injection, schedule: Q04DX003 (ip), vehicle: saline with Tween-80 89 % of control | [2] 105 % of control | dose: 300.0 mg/kg/injection, schedule: Q04DX003 (ip), vehicle: saline with Tween-80 94 % of control | [3] 100 % of control

CC[C@@]12CCCN3CC[C@]4(c5cccc(OC)c5N(C(C)=O)[C@@H]4CC1)[C@H]32
inactive: dose: 6.25 mg/kg/injection, schedule: Q01DX009 (ip), vehicle: Klucel (hydroxypropylcellulose) (HPC) 100 % of control | dose: 12.5 mg/kg/injection, schedule: Q01DX009 (ip), vehicle: Klucel (hydroxypropylcellulose) (HPC) 95 % of control | dose: 25.0 mg/kg/injection, schedule: Q01DX009 (ip), vehicle: Klucel (hydroxypropylcellulose) (HPC) 104 % of control | dose: 50.0 mg/kg/injection, schedule: Q01DX001 (ip), vehicle: Klucel (hydroxypropylcellulose) (HPC) 108 % of control | dose: 100.0 mg/kg/injection, schedule: Q01DX001 (ip), vehicle: Klucel (hydroxypropylcellulose) (HPC) 116 % of control | dose: 200.0 mg/kg/injection, schedule: Q01DX001 (ip), vehicle: Klucel (hydroxypropylcellulose) (HPC) 91 % of control

CCCCCC(C1=NC(C)(C)CC(C)O1)c1ccccc1 (stereo unspecified)
inactive: dose: 50.0 mg/kg/injection, schedule: Q04DX003 (ip), vehicle: saline sonified 100 % of control | [4] 100 % of control | [5] 100 % of control

CC(=O)OCc1c(O)c2c(c(O)c1COC(C)=O)C(=O)C=CC2=O
inactive: dose: 1.56 mg/kg/injection, schedule: Q01DX009 (ip), vehicle: saline 107 % of control | dose: 3.12 mg/kg/injection, schedule: Q01DX009 (ip), vehicle: saline 96 % of control | dose: 6.25 mg/kg/injection, schedule: Q01DX009 (ip), vehicle: saline 105 % of control | dose: 12.5 mg/kg/injection, schedule: Q01DX009 (ip), vehicle: saline 87 % of control | dose: 25.0 mg/kg/injection, schedule: Q01DX009 (ip), vehicle: saline 94 % of control

O=C1NC(=O)C2(CCCCCC2)N1
inactive: dose: 50.0 mg/kg/injection, schedule: Q01DX009 (ip), vehicle: saline with Tween-80 100 % of control | dose: 50.0 mg/kg/injection, schedule: Q04DX003 (ip), vehicle: saline with Tween-80 112 % of control | [6] 112 % of control | [4] 95 % of control | [1] 104 % of control | [7] 108 % of control | [5] 95 % of control | [2] 100 % of control | dose: 400.0 mg/kg/injection, schedule: Q04DX003 (ip), vehicle: saline sonified 104 % of control

CN(C)C1C(=O)C(C(N)=O)=C(O)C2(O)C(=O)C3=C(O)c4c(O)cccc4C(C)(O)C3C(O)C12 (stereo unspecified)
inactive: dose: 50.0 mg/kg/injection, schedule: Q01DX010 (oral), vehicle: water 100 % of control | dose: 100.0 mg/kg/injection, schedule: Q01DX010 (oral), vehicle: water 109 % of control | dose: 200.0 mg/kg/injection, schedule: Q01DX010 (oral), vehicle: water 100 % of control

O=C1CC(c2ccc(Cl)cc2)NC(c2ccc(Cl)cc2)C1 (stereo unspecified)
inactive: [6] 101 % of control | [1] 107 % of control | dose: 150.0 mg/kg/injection, schedule: Q01DX009 (ip), vehicle: saline with Tween-80 111 % of control | [7] 116 % of control | [2] 100 % of control | [3] 107 % of control

c1ccc(Sc2cccc3ccccc23)cc1
inactive: [6] 100 % of control | [7] 104 % of control | dose: 400.0 mg/kg/injection, schedule: Q01DX009 (ip), vehicle: saline with Tween-80 104 % of control

CCOC(c1ccccc1)(c1ccccc1)c1ccccc1
inactive: dose: 100.0 mg/kg/injection, schedule: Q04DX003 (ip), vehicle: other 105 % of control | dose: 200.0 mg/kg/injection, schedule: Q04DX003 (ip), vehicle: other 105 % of control | dose: 400.0 mg/kg/injection, schedule: Q04DX003 (ip), vehicle: other 110 % of control

— PubChem BioAssay AID328 (DTP/NCI, 2004)
